Laboratory results from ChEMBL document CHEMBL3792363, “2,6-Bis(benzimidazol-2-yl)pyridine as a potent transmembrane anion transporter” (Bioorg Med Chem Lett, 2016).

Legend:
[1] = Binding affinity to nitrate anion assessed as association constant by spectrometric titration method
[2] = Binding affinity to chloride anion assessed as association constant by spectrometric titration method
[3] = Binding affinity to bromide anion assessed as association constant by spectrometric titration method relative to Me2bimpy
[4] = Ionophoric activity assessed as induction of chloride influx into EYPC based liposomal membranes at 1 to 5% in presence of intravesicular NaNO3 by lucigenin based fluorescence assay; details: artificial membrane
[5] = Ionophoric activity assessed as induction of chloride influx into EYPC based liposomal membranes at 1 to 5% in presence of intravesicular Na2SO4 by lucigenin based fluorescence assay; details: artificial membrane
[6] = Ionophoric activity assessed as induction of chloride influx into EYPC based liposomal membranes at 1 to 5% in presence of intravesicular and extravesicular by lucigenin based fluorescence assay; details: artificial membrane
[7] = Ionophoric activity assessed as induction of pH discharge across EYPC based liposomal membranes using chloride salt of Na+ ions at 3% by pyranine based fluorescence assay; details: artificial membrane
[8] = Ionophoric activity assessed as induction of pH discharge across EYPC based liposomal membranes using chloride salt of Li+ ions at 3% by pyranine based fluorescence assay; details: artificial membrane
[9] = Ionophoric activity assessed as induction of pH discharge across EYPC based liposomal membranes using chloride salt of K+ ions at 3% by pyranine based fluorescence assay; details: artificial membrane
[10] = Binding affinity to iodide anion assessed as association constant by spectrometric titration method
[11] = Ionophoric activity assessed as induction of pH discharge across EYPC based liposomal membranes using chloride salt of Cs+ ions at 3% by pyranine based fluorescence assay; details: artificial membrane
[12] = Binding affinity to chloride anion assessed as association constant by spectrometric titration method relative to Me2bimpy
[13] = Ionophoric activity assessed as induction of pH discharge across POPC/cholesterol (30%) based liposomal membranes at 1 to 5% by pyranine based fluorescence assay; details: artificial membrane
[14] = Ionophoric activity assessed as induction of pH discharge across POPC based liposomal membranes at 1 to 5% by pyranine based fluorescence assay; details: artificial membrane
[15] = Binding affinity to nitrate anion assessed as association constant by spectrometric titration method relative to Me2bimpy
[16] = Binding affinity to bromide anion assessed as association constant by spectrometric titration method
[17] = Binding affinity to iodide anion assessed as association constant by spectrometric titration method relative to Me2bimpy
[18] = Ionophoric activity assessed as induction of chloride influx into EYPC based liposomal membranes at 5% measured within 5 mins by lucigenin based fluorescence assay; details: artificial membrane
[19] = Ionophoric activity assessed as induction of pH discharge across EYPC based liposomal membranes using chloride salt of Rb+ ions at 3% by pyranine based fluorescence assay; details: artificial membrane
[20] = Ionophoric activity assessed as induction of pH discharge across EYPC based liposomal membranes at 1 to 5% by pyranine based fluorescence assay; details: artificial membrane
[21] = Ionophoric activity assessed as induction of chloride influx into EYPC based liposomal membranes at 15% measured within 5 mins by lucigenin based fluorescence assay; details: artificial membrane
[22] = Ionophoric activity assessed as induction of pH discharge across EYPC based liposomal membranes at 5% by pyranine based fluorescence assay; details: artificial membrane

| Ka [1] | Ka [2] | Activity [4] | Ka [10] | Ka [16] | Activity [20] | Compound | Activity [21] [%] | further results |
| --- | --- | --- | --- | --- | --- | --- | --- | --- |
| 4.9 ×10³ /M | 8.71 ×10³ /M | Active | 1.57 ×10³ /M | 3.04 ×10³ /M | Active | c1cc(-c2nc3ccccc3[nH]2)nc(-c2nc3ccccc3[nH]2)c1 |  | fold change (FC) [3]: 6; Activity [5]: Active; Activity [6]: Active; Activity [7]: Active; Activity [8]: Active; Activity [9]: Active; Activity [11]: Active; fold change (FC) [12]: 22; Activity [13]: Not Active; Activity [14]: Not Active; fold change (FC) [15]: 6.8; fold change (FC) [17]: 2.2; Activity [18]: 35%; Activity [19]: Active |
|  |  |  |  |  |  | CC(C)[C@H](C(=O)NCc1ccccc1)n1cc[n+](Cc2cccc(C[n+]3ccn([C@@H](C(=O)NCc4ccccc4)C(C)C)c3)c2)c1.O=S(=O)([N-]S(=O)(=O)C(F)(F)F)C(F)(F)F.O=S(=O)([N-]S(=O)(=O)C(F)(F)F)C(F)(F)F | 35 |  |
|  |  |  |  |  |  | O=C(NCc1ccccc1)[C@@H](Cc1ccccc1)n1cc[n+](Cc2cccc(C[n+]3ccn([C@H](Cc4ccccc4)C(=O)NCc4ccccc4)c3)c2)c1.O=S(=O)([N-]S(=O)(=O)C(F)(F)F)C(F)(F)F.O=S(=O)([N-]S(=O)(=O)C(F)(F)F)C(F)(F)F | 35 |  |
|  |  |  |  |  |  | CCCCCCCCCCCCNC(=O)[C@@H](C(C)C)n1cc[n+](Cc2cccc(C[n+]3ccn([C@@H](C(=O)NCCCCCCCCCCCC)C(C)C)c3)c2)c1.O=S(=O)([N-]S(=O)(=O)C(F)(F)F)C(F)(F)F.O=S(=O)([N-]S(=O)(=O)C(F)(F)F)C(F)(F)F | 35 |  |
| 7.23 ×10² /M | 4 ×10² /M | Not Active | 7.07 ×10² /M | 5.03 ×10² /M | Not Active | Cn1c(-c2cccc(-c3nc4ccccc4n3C)n2)nc2ccccc21 |  |  |
|  |  |  |  |  |  | c1cc(-c2nc3ccccc3[nH]2)cc(-c2nc3ccccc3[nH]2)c1 |  | Activity [22]: Active |
